Laboratory results reported in paper PMC10337980 (PLOS Genetics, 2023).
Changes are numbered by the printed parent chain.

Legend:
Format in all cases: cell-based
[1] = target: T1, DmRDL (Drosophila melanogaster, UniProt P25123, G335M); assay: two-electrode voltage clamp, inhibition of GABA-induced current in Xenopus oocytes
T1 construct: gene Rdl; homomeric
T1 sequence (P25123 45-606 G335M): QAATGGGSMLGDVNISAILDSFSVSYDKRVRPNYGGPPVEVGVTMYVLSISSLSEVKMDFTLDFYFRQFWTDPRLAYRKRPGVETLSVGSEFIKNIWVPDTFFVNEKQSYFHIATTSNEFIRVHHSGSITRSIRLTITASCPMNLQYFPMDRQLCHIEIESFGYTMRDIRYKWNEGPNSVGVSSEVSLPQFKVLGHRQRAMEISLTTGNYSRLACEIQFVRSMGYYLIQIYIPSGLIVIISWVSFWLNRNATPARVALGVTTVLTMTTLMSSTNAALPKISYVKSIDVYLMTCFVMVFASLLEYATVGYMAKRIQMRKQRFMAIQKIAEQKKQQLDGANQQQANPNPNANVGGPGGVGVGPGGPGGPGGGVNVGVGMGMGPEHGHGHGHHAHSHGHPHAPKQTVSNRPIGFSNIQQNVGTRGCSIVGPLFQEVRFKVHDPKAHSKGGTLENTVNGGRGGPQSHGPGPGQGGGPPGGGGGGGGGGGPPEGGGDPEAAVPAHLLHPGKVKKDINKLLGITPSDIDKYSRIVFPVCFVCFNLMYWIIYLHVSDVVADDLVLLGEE

[2] = target: T2, CsRDL (Chilo suppressalis, UniProt E2IKR3); assay: as above
T2 construct: homomeric channel
T2 sequence (E2IKR3 27-496): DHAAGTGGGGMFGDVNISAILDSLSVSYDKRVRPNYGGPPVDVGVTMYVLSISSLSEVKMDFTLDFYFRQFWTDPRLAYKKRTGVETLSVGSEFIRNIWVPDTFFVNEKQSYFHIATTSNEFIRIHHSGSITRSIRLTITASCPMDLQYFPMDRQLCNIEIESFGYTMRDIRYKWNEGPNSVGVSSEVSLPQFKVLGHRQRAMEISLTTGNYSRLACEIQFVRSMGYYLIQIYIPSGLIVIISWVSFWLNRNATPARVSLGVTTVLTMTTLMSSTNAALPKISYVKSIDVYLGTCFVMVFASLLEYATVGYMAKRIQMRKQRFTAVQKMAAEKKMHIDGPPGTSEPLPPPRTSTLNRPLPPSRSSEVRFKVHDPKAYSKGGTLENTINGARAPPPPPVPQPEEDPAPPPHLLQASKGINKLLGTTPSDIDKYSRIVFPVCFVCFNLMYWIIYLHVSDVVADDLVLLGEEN

[3] = target: T3, TuRDL (Tetranychus urticae, UniProt E3WEB3); assay: as above
T3 construct: gene Rdl; homomeric
T3 sequence (E3WEB3 18-827): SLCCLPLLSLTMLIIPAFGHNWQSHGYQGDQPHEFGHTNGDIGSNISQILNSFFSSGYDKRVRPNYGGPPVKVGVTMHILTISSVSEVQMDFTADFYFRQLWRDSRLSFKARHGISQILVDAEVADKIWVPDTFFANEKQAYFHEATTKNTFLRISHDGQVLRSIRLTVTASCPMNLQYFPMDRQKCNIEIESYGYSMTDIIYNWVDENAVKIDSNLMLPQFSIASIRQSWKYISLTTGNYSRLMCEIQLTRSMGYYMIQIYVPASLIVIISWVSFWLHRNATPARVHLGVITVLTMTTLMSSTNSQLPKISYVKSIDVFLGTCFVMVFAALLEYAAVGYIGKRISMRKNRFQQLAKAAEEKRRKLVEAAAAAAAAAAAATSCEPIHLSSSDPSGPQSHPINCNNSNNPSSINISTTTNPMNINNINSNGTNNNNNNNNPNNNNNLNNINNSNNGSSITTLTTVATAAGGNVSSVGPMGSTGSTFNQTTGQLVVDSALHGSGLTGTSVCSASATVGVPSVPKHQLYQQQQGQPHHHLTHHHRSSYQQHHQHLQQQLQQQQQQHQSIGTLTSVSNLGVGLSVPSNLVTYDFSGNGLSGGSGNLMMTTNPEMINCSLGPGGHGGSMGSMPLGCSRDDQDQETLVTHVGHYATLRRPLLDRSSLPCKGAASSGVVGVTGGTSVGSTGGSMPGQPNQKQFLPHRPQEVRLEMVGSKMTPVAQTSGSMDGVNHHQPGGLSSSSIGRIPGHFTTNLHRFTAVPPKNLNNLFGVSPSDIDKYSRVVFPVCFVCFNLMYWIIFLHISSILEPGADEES

[4] = target: T4, LsRDL (Laodelphax striatellus, UniProt Q0ECT5); assay: as above
T4 construct: homomeric
T4 sequence (Q0ECT5 23-487): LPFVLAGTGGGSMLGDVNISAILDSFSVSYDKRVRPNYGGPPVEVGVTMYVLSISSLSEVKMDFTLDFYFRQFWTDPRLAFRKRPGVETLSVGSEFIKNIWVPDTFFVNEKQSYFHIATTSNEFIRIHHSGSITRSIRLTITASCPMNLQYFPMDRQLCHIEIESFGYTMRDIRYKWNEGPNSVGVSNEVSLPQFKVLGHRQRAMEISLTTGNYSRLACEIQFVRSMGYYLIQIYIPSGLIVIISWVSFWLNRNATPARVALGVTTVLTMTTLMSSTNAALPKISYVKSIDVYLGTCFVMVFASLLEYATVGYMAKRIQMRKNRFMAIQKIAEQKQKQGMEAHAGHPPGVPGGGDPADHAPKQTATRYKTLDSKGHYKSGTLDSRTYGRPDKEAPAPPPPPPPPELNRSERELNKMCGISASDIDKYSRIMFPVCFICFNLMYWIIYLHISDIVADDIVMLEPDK

[5] = target: T5, DmRDL (Drosophila melanogaster, UniProt P25123); assay: as above
T5 construct: gene Rdl; homomeric
T5 sequence (P25123 45-606): T1 sequence (P25123 45-606 G335M) with M291G

[6] = target: T6, AmRDL (Apis mellifera, UniProt A0A168SJP2); assay: as above
T6 construct: homomeric
T6 sequence (A0A168SJP2 19-477): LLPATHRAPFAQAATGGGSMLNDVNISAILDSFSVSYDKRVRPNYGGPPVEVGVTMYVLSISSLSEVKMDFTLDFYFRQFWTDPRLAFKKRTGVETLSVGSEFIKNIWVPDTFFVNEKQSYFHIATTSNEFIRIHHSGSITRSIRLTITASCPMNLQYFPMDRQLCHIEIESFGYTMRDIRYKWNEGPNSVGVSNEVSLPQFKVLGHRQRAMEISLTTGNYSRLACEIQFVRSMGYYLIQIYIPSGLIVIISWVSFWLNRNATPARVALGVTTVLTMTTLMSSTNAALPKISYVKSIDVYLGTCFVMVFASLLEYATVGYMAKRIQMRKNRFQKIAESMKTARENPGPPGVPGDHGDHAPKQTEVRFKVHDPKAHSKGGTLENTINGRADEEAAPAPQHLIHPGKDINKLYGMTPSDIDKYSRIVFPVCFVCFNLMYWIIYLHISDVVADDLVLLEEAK

[7] = target: T6, AmRDL; assay: two-electrode voltage clamp, GABA-induced current in Xenopus oocytes
[8] = target: T2, CsRDL; assay: as above
[9] = target: T4, LsRDL; assay: as above
[10] = target: T3, TuRDL; assay: as above

| Structure (SMILES) | IC50 [1] [nM] | IC50 [2] [nM] | IC50 [3] [nM] | IC50 [4] [nM] | IC50 [5] [nM] | IC50 [6] [nM] | EC50 [7] [nM] | EC50 [8] [nM] | EC50 [9] [nM] | EC50 [10] [nM] |
| --- | --- | --- | --- | --- | --- | --- | --- | --- | --- | --- |
| Cc1cc(C2=NOC(c3cc(Cl)cc(Cl)c3)(C(F)(F)F)C2)ccc1C(=O)NCC(=O)NCC(F)(F)F (centres unmarked) [fluralaner] | > 10000 | 4.2 | 2.53 | 3.27 | 6.96 | 9.38 | – | – | – | – |
| N#Cc1nn(-c2c(Cl)cc(C(F)(F)F)cc2Cl)c(N)c1[S+]([O-])C(F)(F)F (centres unmarked) [fipronil] | – | 10 | – | – | – | – | – | – | – | – |
| NCCCC(=O)O [GABA] | – | – | – | – | – | – | 13400 | 18100 | 31900 | 295000 |
